Toxic doses and inconclusive results are not listed.

This experiment has as its system BDF1 mice, B16 melanoma ip, median survival T/C. Nature of the experiment: NCI In Vivo Anticancer Drug Screen. Data for tumor model B16 Melanoma (intraperitoneal) in B6D2F1 (BDF1) mice. Conditions: endpoint: median survival time, higher = longer survival. The method in brief:
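Survival or tumor size is measured after treatment of tumor-bearing mice and normalised to the vehicle-treated control group.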

Where [1] appears, read: dose: 6.25 mg/kg/injection, schedule: Q01DX009 (ip), vehicle: Klucel (hydroxypropylcellulose) (HPC).
[2] abbreviates: dose: 12.5 mg/kg/injection, schedule: Q01DX009 (ip), vehicle: Klucel (hydroxypropylcellulose) (HPC).
Setting [3] is: dose: 25.0 mg/kg/injection, schedule: Q01DX009 (ip), vehicle: Klucel (hydroxypropylcellulose) (HPC).
Where [4] appears, read: dose: 50.0 mg/kg/injection, schedule: Q01DX009 (ip), vehicle: Klucel (hydroxypropylcellulose) (HPC).
The mark [5] stands for this setting: dose: 0.78 mg/kg/injection, schedule: Q01DX009 (ip), vehicle: saline.
Setting [6] is: dose: 1.56 mg/kg/injection, schedule: Q01DX009 (ip), vehicle: saline.
[7] abbreviates: dose: 3.12 mg/kg/injection, schedule: Q01DX009 (ip), vehicle: saline.
Where [8] appears, read: dose: 50.0 mg/kg/injection, schedule: Q01DX009 (ip), vehicle: saline with Tween-80.
[9] abbreviates: dose: 100.0 mg/kg/injection, schedule: Q01DX009 (ip), vehicle: saline with Tween-80.
[10] abbreviates: dose: 100.0 mg/kg/injection, schedule: Q01DX009 (ip), vehicle: Klucel (hydroxypropylcellulose) (HPC).
[11] abbreviates: dose: 200.0 mg/kg/injection, schedule: Q01DX009 (ip), vehicle: Klucel (hydroxypropylcellulose) (HPC).
[12] abbreviates: dose: 12.5 mg/kg/injection, schedule: Q04DX003 (ip), vehicle: Klucel (hydroxypropylcellulose) (HPC).
Where [13] appears, read: dose: 25.0 mg/kg/injection, schedule: Q04DX003 (ip), vehicle: Klucel (hydroxypropylcellulose) (HPC).
[14] abbreviates: dose: 200.0 mg/kg/injection, schedule: Q01DX009 (ip), vehicle: saline with Tween-80.
Setting [15] is: dose: 50.0 mg/kg/injection, schedule: Q01DX009 (ip), vehicle: saline.
The mark [16] stands for this setting: dose: 100.0 mg/kg/injection, schedule: Q01DX009 (ip), vehicle: saline.
The mark [17] stands for this setting: dose: 200.0 mg/kg/injection, schedule: Q01DX009 (ip), vehicle: saline.

Regarding `Nc1nc(-c2ccccc2N=NN2CCN(N=Nc3ccccc3-c3nc(N)c4ccccc4n3)CC2)nc2ccccc12`, the T/C (dose: 3.12 mg/kg/injection, schedule: Q01DX009 (ip), vehicle: Klucel (hydroxypropylcellulose) (HPC)) is 95 % of control; the T/C under setting [1] was 92 % of control; the T/C under setting [2] was 107 % of control; the T/C under setting [3] is 107 % of control; the T/C under setting [4] is 113 % of control.

As for `CC1(O)Nc2nc3c(ncn3C3OC(CO)C(O)C3O)c(=O)n2C1O` (configuration not stated), the T/C (dose: 12.5 mg/kg/injection, schedule: Q01DX009 (ip), vehicle: water) was 96 % of control; the T/C (dose: 25.0 mg/kg/injection, schedule: Q01DX009 (ip), vehicle: water) is 103 % of control; the T/C (dose: 50.0 mg/kg/injection, schedule: Q01DX009 (ip), vehicle: water) is 101 % of control; the T/C (dose: 100.0 mg/kg/injection, schedule: Q01DX009 (ip), vehicle: water) is 100 % of control; the T/C (dose: 200.0 mg/kg/injection, schedule: Q01DX009 (ip), vehicle: water) is 97 % of control; the T/C (dose: 400.0 mg/kg/injection, schedule: Q01DX009 (ip), vehicle: water) was 95 % of control.

Take `O=c1[nH]c(=O)n(C2OC(CO)C(O)C2O)cc1F` (configuration not stated): the T/C is 156 % of control under setting [5], 165 % of control under setting [6] and 165 % of control under setting [7].

With `COC(=O)c1cccc(C)c1O`, the T/C was 100 % of control under setting [8] and 112 % of control under setting [9].

As for `O=C1NC(Cc2ccc(N(CCCl)CCCl)cc2)C(=O)O1` (configuration not stated), the T/C reads like this: (dose: 0.1 mg/kg/injection, schedule: Q01DX009 (ip), vehicle: saline with Tween-80) 94 % of control; (dose: 0.2 mg/kg/injection, schedule: Q01DX009 (ip), vehicle: saline with Tween-80) 102 % of control; (dose: 0.4 mg/kg/injection, schedule: Q01DX009 (ip), vehicle: saline with Tween-80) 105 % of control; (dose: 3.0 mg/kg/injection, schedule: Q01DX009 (ip), vehicle: saline with Tween-80) 157 % of control; (dose: 3.13 mg/kg/injection, schedule: Q01DX009 (ip), vehicle: saline with Tween-80) 197 % of control; (dose: 6.0 mg/kg/injection, schedule: Q01DX009 (ip), vehicle: saline with Tween-80) 203 % of control. In addition, the T/C (dose: 12.5 mg/kg/injection, schedule: Q01DX009 (ip), vehicle: saline with Tween-80) is 155 % of control.

With `CN1CCN(CCC=C2c3ccccc3Sc3ccc(S(=O)(=O)N(C)C)cc32)CC1`, the T/C was 102 % of control under setting [5]; 100 % of control under setting [6]; 86 % of control under setting [7]; 89 % of control (dose: 12.5 mg/kg/injection, schedule: Q01DX009 (ip), vehicle: saline).

As to `CCC(C(N)=O)C1=CCCCC1` (configuration not stated), the T/C was 105 % of control under setting [10] and 101 % of control under setting [11].

`CC(=O)CC(=O)Oc1ccccc1OC(C)=O`: the T/C by setting is: under setting [4], 94 % of control; under setting [10], 100 % of control.

For the molecule `CCCCCCCCCCCCCCCC(=O)N(CCC#N)CCCCCCCCCN(CCC#N)C(=O)CCCCCCCCCCCCCCC`, the T/C was 88 % of control under setting [12] and 90 % of control under setting [13].

As to `Cc1c(C)c2c(c(C)c1O)CCC(C)(CCCC(C)CCCC(C)CCCC(C)C)O2` (configuration not stated), the T/C runs as follows: under setting [9], 95 % of control; under setting [14], 90 % of control.

On to `CN(C)c1ccc2cc(S(=O)(=O)O)cc(O)c2c1`, for which the T/C is, setting by setting: under setting [9], 97 % of control; under setting [14], 94 % of control.

Take `O=C1C=CC(=C(c2ccccc2)c2ccccc2)C=C1`: the T/C is 96 % of control under setting [1]; 100 % of control under setting [2]; 96 % of control under setting [12]; 96 % of control under setting [3]; 100 % of control under setting [13].

Consider `C=C(C)C12CC(C)C34OC(CCCCCCCCCCC)(OC1C3C1OC1(CO)C(O)C1(O)C(=O)C(C)=CC14C)O2` (configuration not stated), for which the T/C is, setting by setting: (dose: 0.05 mg/kg/injection, schedule: Q01DX009 (ip), vehicle: distilled water + Tween-80) 103 % of control; (dose: 0.1 mg/kg/injection, schedule: Q01DX009 (ip), vehicle: distilled water + Tween-80) 102 % of control; (dose: 0.2 mg/kg/injection, schedule: Q01DX009 (ip), vehicle: distilled water + Tween-80) 91 % of control; (dose: 0.4 mg/kg/injection, schedule: Q01DX009 (ip), vehicle: distilled water + Tween-80) 90 % of control.

On to `O=S1(=O)OCc2ccccc21`, for which the T/C is 115 % of control under setting [2], 108 % of control under setting [3] and 118 % of control under setting [4].

`COC1=C(N=[N+]=[N-])C(=O)C(OC)=C(N=[N+]=[N-])C1=O`: the T/C reads like this: under setting [2], 111 % of control; under setting [3], 95 % of control; under setting [4], 94 % of control; under setting [10], 91 % of control.

Take `O=C(O)c1ccccc1C(=O)Nc1cc(Cl)ccc1Cl`: the T/C runs as follows: under setting [4], 100 % of control; under setting [10], 94 % of control.

For `O=C(OC1CCCCCCC1)C(F)(F)F`, the T/C is, setting by setting: under setting [10], 100 % of control; (dose: 400.0 mg/kg/injection, schedule: Q01DX009 (ip), vehicle: Klucel (hydroxypropylcellulose) (HPC)) 117 % of control.

With `O=C1C=CC2(CCC23C=CC(=O)O3)O1` (configuration not stated), the T/C runs as follows: (dose: 7.5 mg/kg/injection, schedule: Q01DX009 (ip), vehicle: Klucel (hydroxypropylcellulose) (HPC)) 87 % of control; (dose: 15.0 mg/kg/injection, schedule: Q01DX009 (ip), vehicle: Klucel (hydroxypropylcellulose) (HPC)) 93 % of control; (dose: 30.0 mg/kg/injection, schedule: Q01DX009 (ip), vehicle: Klucel (hydroxypropylcellulose) (HPC)) 92 % of control.

In the case of `COP(=O)(OC)OCc1cnc(SC)nc1N`, the T/C was 121 % of control under setting [15] and 100 % of control under setting [16].

For `CCCCCC/C=C/C#CCCCCCCCC(=O)O`, the T/C was 107 % of control (dose: 37.5 mg/kg/injection, schedule: Q01DX009 (ip), vehicle: Klucel (hydroxypropylcellulose) (HPC)); 99 % of control (dose: 75.0 mg/kg/injection, schedule: Q01DX009 (ip), vehicle: Klucel (hydroxypropylcellulose) (HPC)); 101 % of control (dose: 150.0 mg/kg/injection, schedule: Q01DX009 (ip), vehicle: Klucel (hydroxypropylcellulose) (HPC)).

In the case of `COc1ccc2c(c1[N+](=O)[O-])CC[C@@H]1[C@@H]2CC[C@]2(C)C(=O)CC[C@@H]12`, the T/C reads like this: under setting [8], 87 % of control; under setting [9], 89 % of control.

Turning to `COC1/C=C\C=C(/C)C(=O)NC2=CC(=O)C(N)=C(CC(C)CC(OC)C(O)C(C)C=C(C)C1OC(N)=O)C2=O` (configuration not stated), the T/C (dose: 0.75 mg/kg/injection, schedule: Q01DX009 (ip), vehicle: saline with Tween-80) was 117 % of control.

As for `CCOC(=O)C(C(=O)OCC)=C(C)C`, the T/C runs as follows: (dose: 25.0 mg/kg/injection, schedule: Q01DX009 (ip), vehicle: saline) 123 % of control; under setting [15], 113 % of control; under setting [16], 110 % of control; under setting [17], 94 % of control.

For the molecule `CCCCOC(=O)C(CC)(CC)C(=O)OCCCC`, the T/C under setting [16] is 110 % of control; the T/C under setting [17] was 113 % of control; the T/C (dose: 400.0 mg/kg/injection, schedule: Q01DX009 (ip), vehicle: saline) was 93 % of control.

On to `CNC(=S)NCc1ccc(C(=O)NC(C)C)cc1`, for which the T/C is 101 % of control under setting [3], 99 % of control under setting [4], 118 % of control under setting [10] and 118 % of control under setting [11].

`O=C1c2ccccc2C(=O)c2c(NCCNCCO)ccc(O)c21`: the T/C is 110 % of control (dose: 2.5 mg/kg/injection, schedule: Q01DX009 (ip), vehicle: suspension in saline); 119 % of control (dose: 5.0 mg/kg/injection, schedule: Q01DX009 (ip), vehicle: suspension in saline); 119 % of control (dose: 10.0 mg/kg/injection, schedule: Q01DX009 (ip), vehicle: suspension in saline); 171 % of control (dose: 20.0 mg/kg/injection, schedule: Q01DX009 (ip), vehicle: suspension in saline); 181 % of control (dose: 80.0 mg/kg/injection, schedule: Q01DX009 (ip), vehicle: suspension in saline).

Take `CCCC(C#N)(c1ccccc1)c1ccccc1`: the T/C under setting [4] is 90 % of control, the T/C under setting [10] is 90 % of control and the T/C under setting [11] was 93 % of control.

For the origin of these results see PubChem BioAssay AID192 (DTP/NCI, 2004).
